Experimental data as given in article PMC10609081, “In Vivo Trafficking of the Anticancer Drug Tris(8-Quinolinolato) Gallium (III) (KP46) by Gallium-68/67 PET/SPECT Imaging” (Molecules, 2023).

Assays:
[1] = PET imaging and ex vivo biodistribution 4 h after intravenous injection, NSG mice bearing A375 xenografts (groups A, B); assay type: in vivo; conditions: i.v., tracer level
Protocol: (§1) All animal experiments were performed in accordance with the Animals (Scientific Procedures) Act, 1986, with protocols approved by the Animal Welfare and Ethical Review Body for King’s College London under project and personal licences approved by the UK Home Office. Tumour xenograft studies were performed on female NSG mice or female athymic nude mice after injecting them subcutaneously in the right shoulder with 2.5 × 10^6 A375 cells in 100 µL of PBS. All in vivo studies were conducted between 14 and 24 days after inoculation, with tumour volumes between 100 mm^3 and 580 mm^3 (see Supplementary Materials, Figure S11).
Intravenous [^68Ga]gallium acetate and [^68Ga]KP46: NSG mice bearing A375 xenografts were fasted for 12–14 h before the start of the experiment. Mice were anaesthetised with isoflurane and injected with tracer level [^68Ga]gallium acetate (group A, n = 5) or [^68Ga]KP46 (group B, n = 5) (13–18 MBq, <200 μL) via the tail vein. […] The organs were harvested, weighed, and gamma counted. […]
PET/CT images were acquired with a nanoScan® PET/CT (Mediso Medical Imaging Systems, Budapest, Hungary) scanner operating in list mode using a 400–600 keV energy window and a coincidence window of 1:3. […] The data were then visualised and quantified using VivoQuant^© v.2.50 (InviCro, Boston, MA, USA) software. […] Images were coregistered and analysed using VivoQuant v2.50 (InviCro, Needham, MA, USA).

[2] = PET imaging and ex vivo biodistribution 4 h after oral administration of [68Ga]KP46, tracer (group C) and bulk (group D); assay type: in vivo, mice; conditions: n = 3
Protocol: The tracer-level samples for oral administration were prepared in the same manner but with 20 μL of KP46-free DMSO in place of the KP46 solution in DMSO.
as §1
Oral [^68/67Ga]KP46: The protocol for oral administration experiments reported here was devised on the basis of pilot experiments described in Supplementary Materials (Figure S12). For short-term (up to 4 h) studies with ^68Ga, awake (nonanaesthetised, to avoid suppressive effects of anaesthesia on digestive tract activity) mice that had been fasted for up to 14 h were given [^68Ga]KP46 (5–13 MBq) (group C, “tracer”, n = 3) or [^68Ga]KP46 and KP46 (5–8.5 MBq) (group D, “bulk”, n = 3) by oral gavage. The dose given orally to group D animals, prepared as described above, was 0.4 μmol in 400 μL, molar activity ca. 25 MBq/μmol. The mice were fasted for three hours before being anaesthetised and PET/CT scanned dynamically for one hour (see below for scanning protocol). After scanning, mice in both groups were culled by neck dislocation while still anaesthetised four hours post-oral administration for organ harvesting and gamma counting. Samples of blood, urine and contents of stomach, small intestine and large intestine (the organs/tissue with measurable activity; tumours were not included as they were insufficiently radioactive) from the mice in group C were used for octanol extraction (shake-flask method) to separate water-soluble (released) and lipid-soluble (intact KP46) ^68Ga. Serum samples were prepared by placing blood samples in a serum separator tube (brand VS367954, Fisher Scientific Ltd., Loughborough, UK) and centrifuging at 3000 rpm for 10 min. Serum (200–300 µL) and urine samples (150–180 µL, taken from the excised bladders) were directly added to Eppendorf tubes containing a pre-equilibrated mixture of octanol (500 µL) and water (500 µL). The tubes were vortexed for two minutes on a Multi Vortex Mixer V-32 (Grant Bio). After separation of layers, a sample of 400 µL from each layer was transferred to fresh Eppendorf tubes and analysed with a gamma counter. Stomach content (72–77 mg), small intestine content (35–88 mg), and large intestine content (86–100 mg) samples from each mouse were analysed similarly by adding them directly to Eppendorf tubes containing a pre-equilibrated mixture of octanol (500 µL) and water (500 µL) before vortexing and centrifuging at 10,000 rpm for 10 min at 4 °C. From each layer, 430 µL was transferred to fresh Eppendorf tubes and analysed with a gamma counter; the solid residues were also counted. Tissues from mice in group D were used after radioactive decay for measurements of nonradioactive ^69Ga content.
PET/CT images were acquired with a nanoScan® PET/CT (Mediso Medical Imaging Systems, Budapest, Hungary) scanner operating in list mode using a 400–600 keV energy window and a coincidence window of 1:3. CT scans were acquired for anatomical reference and attenuation correction (55 keV X-ray, exposure time 1000 ms, and 360 projections and pitch 1). PET projection data were reconstructed using the Tera-tomo® software package provided with the scanner —a Monte Carlo-based fully 3D iterative algorithm with four iterations, six subsets, and 0.4 mm isotropic voxel size; corrections for attenuation, scatter, and dead-time were enabled. […]

[3] = Ex vivo biodistribution 2 h after intravenous injection, nu/nu mice bearing A375 xenografts; assay type: in vivo; conditions: i.v., tracer level
Protocol: Figure S8. Ex vivo biodistribution of [ Ga]KP46 (tracer level) in nu/nu mice bearing A375 xenografts at two hours post i.v. injection via tail vein. […] Values are […]
expressed as mean ± SD (n = 3). (See below for methods)
Methodology for ex vivo biodistribution 2 h after intravenous injection of [68Ga]KP46 Mice were intravenously injected with tracer level [68Ga]KP46 and culled two hours post injection for organ harvesting and gamma counting. Consistent with the data shown in the main manuscript for 4 […]
[68Ga]KP46. Activity was also observed in the kidneys (30%ID/g for both kidneys) and urine, indicating excretion through urinary system. Significant activity was also seen in the lungs, heart, and small intestine (14.3 ± 0.6, 12.6 ± 1.7 and 12 ± 2.6 %ID/g, respectively), with minimal activity accumulating in the tumour (3.4 ± 0.4%ID/g) (Figure S8). […]

[68Ga+3].[O-]c1cccc2cccnc12.[O-]c1cccc2cccnc12.[O-]c1cccc2cccnc12 [[^68Ga]KP46]
tumour uptake, ex vivo biodistribution ([1]; 4 h, n = 5): 2.6 ± 0.9 %ID/g
tumour uptake of 68Ga by PET/CT ([1]; by four hours): no visible tumour accumulation
68Ga activity delivered to tumour ([2]; bulk (group D)): 0.5 ± 0.3 %ID/g
68Ga activity in small intestine ([2]; bulk (group D)): 18.4 ± 5 %ID/g
68Ga activity in stomach ([2]; bulk (group D)): 11.9 ± 8.1 %ID/g
68Ga activity in large intestine ([2]; bulk (group D, combined with KP46 0.4 μmol)): 56.5 ± 21.4 %ID/g
uptake in large intestine, ex vivo ([2]; tracer level (group C)): 61.7 ± 21.5 %ID/g
uptake in small intestine, ex vivo ([2]; tracer level (group C)): 12.8 ± 4.1 %ID/g
activity in kidneys, ex vivo ([3]; both kidneys): 30 %ID/g
activity in heart, ex vivo ([3]; n = 3): 12.6 ± 1.7 %ID/g
activity in liver, ex vivo ([3]; n = 3): 31.4 ± 3.8 %ID/g
activity in lungs, ex vivo ([3]; n = 3): 14.3 ± 0.6 %ID/g
activity in small intestine, ex vivo ([3]; n = 3): 12 ± 2.6 %ID/g
activity in tumour, ex vivo ([3]; n = 3): 3.4 ± 0.4 %ID/g
